Source: patent US7074789B2, “Kinase inhibitors” (Amgen Inc., priority 1999, dated 2006)
pIC50: −log10 of the molar value. Where “and” joins values, the source holds several entries; their conditions need not be identical. Identical values can stand only once. Like-named read-outs stand apart in the source and are kept apart here.

Experiments:
Assay type in all cases: biochemical
Lck = molecular target: T1, Lck (Homo sapiens, UniProt P06239); test: Kinase inhibition assay (33P transfer), Lck; conditions: read-out: Lck-1
T1 construct: Kinases are expressed as either kinase domains or full length constructs; made in house
In short: (§1)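 Measured by scintillation: radiolabelled phosphate added by tagged recombinant kinases to poly(Glu,Tyr) 4:1 or poly(Arg,Ser) 3:1 attached to microtiter wells, counted once free label was washed away with 0.5% phosphoric acid.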

Lyn = molecular target: T2, Lyn (Homo sapiens, UniProt P07948); test: Kinase inhibition assay (33P transfer), Lyn; conditions: Table 6, Lyn-1 kinase inhibition class
T2 construct: Kinases are expressed as either kinase domains or full length constructs; made in house
T2 sequence (P07948 whole entry, species assumed, the tested form may be a part): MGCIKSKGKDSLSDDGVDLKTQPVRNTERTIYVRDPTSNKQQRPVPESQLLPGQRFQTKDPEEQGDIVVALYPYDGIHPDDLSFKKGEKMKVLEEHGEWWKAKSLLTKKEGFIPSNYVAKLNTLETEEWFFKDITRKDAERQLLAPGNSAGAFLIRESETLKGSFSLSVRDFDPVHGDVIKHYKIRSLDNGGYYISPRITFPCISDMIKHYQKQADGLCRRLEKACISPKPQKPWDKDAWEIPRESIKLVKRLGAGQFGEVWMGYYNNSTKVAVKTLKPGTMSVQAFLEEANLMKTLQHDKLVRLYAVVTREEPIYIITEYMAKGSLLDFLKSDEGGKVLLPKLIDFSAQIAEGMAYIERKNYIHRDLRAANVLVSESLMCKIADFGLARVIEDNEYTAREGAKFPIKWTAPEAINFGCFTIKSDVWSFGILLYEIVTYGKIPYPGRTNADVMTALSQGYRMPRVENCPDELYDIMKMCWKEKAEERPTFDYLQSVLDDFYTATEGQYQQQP
In short: (§2)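 Kinase domains or full-length enzymes, GST- or polyHis-tagged, were expressed in E. coli or baculovirus High Five cells and affinity-purified. Transfer of 33PO4 from ATP onto plate-bound poly(Glu,Tyr) 4:1 or poly(Arg,Ser) 3:1 was counted by liquid scintillation after a 0.5% phosphoric acid wash. IC50 = concentration halving incorporation.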

Src = molecular target: T3, Src (Homo sapiens, UniProt P12931); test: Kinase inhibition assay (33P transfer), Src; conditions: Table 6, Src-1 kinase inhibition class
T3 construct: Kinases are expressed as either kinase domains or full length constructs; made in house
In short: as §2

Fyn = molecular target: T4, Fyn (Homo sapiens, UniProt P06241); test: Kinase inhibition assay (33P transfer), Fyn; conditions: read-out: Fyn-1
T4 construct: Kinases are expressed as either kinase domains or full length constructs; made in house
In short: as §2

Zap-70 = molecular target: T5, Zap-70 (Homo sapiens, UniProt P43403); test: Kinase inhibition assay (33P transfer), Zap-70; conditions: read-out: Zap-1
T5 construct: Kinases are expressed as either kinase domains or full length constructs; made in house
T5 sequence (P43403 1-619): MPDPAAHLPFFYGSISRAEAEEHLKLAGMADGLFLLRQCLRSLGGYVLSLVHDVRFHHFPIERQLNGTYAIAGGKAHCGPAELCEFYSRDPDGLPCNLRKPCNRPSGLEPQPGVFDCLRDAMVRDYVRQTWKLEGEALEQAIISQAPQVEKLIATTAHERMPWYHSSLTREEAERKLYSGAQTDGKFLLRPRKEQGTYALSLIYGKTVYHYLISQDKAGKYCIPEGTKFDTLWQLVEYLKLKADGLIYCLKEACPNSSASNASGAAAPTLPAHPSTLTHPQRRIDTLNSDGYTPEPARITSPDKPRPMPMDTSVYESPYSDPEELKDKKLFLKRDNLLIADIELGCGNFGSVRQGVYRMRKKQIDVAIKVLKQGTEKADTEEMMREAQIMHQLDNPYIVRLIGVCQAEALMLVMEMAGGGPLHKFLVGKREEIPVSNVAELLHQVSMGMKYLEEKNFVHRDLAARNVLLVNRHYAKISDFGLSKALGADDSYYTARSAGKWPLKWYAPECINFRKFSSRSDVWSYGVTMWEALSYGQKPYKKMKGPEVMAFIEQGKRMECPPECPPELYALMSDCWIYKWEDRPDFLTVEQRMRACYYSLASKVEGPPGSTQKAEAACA
In short: as §1

Itk = molecular target: T6, Itk (Homo sapiens, UniProt Q08881); test: Kinase inhibition assay (33P transfer), Itk; conditions: read-out: Itk-1
T6 construct: Kinases are expressed as either kinase domains or full length constructs; made in house
T6 sequence (Q08881 1-620): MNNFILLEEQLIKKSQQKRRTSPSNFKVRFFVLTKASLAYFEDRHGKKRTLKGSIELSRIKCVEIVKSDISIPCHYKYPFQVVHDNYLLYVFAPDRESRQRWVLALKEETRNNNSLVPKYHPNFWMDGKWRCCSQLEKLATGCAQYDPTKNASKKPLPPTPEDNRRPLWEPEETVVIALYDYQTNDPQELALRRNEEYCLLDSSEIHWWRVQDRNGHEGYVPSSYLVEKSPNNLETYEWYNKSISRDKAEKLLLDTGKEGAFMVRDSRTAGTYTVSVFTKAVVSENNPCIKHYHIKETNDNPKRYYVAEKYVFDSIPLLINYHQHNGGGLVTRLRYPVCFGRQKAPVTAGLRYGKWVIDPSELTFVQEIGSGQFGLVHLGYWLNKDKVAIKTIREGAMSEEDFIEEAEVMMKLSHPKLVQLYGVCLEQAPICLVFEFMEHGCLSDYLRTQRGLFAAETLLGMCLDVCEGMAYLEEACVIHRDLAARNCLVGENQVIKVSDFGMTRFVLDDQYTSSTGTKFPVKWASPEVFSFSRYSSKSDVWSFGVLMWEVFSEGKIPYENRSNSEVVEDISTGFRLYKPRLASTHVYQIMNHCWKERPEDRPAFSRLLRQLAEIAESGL
In short: as §2

EGFR = molecular target: T7, EGFR (Homo sapiens, UniProt P00533); test: Kinase inhibition assay (33P transfer), EGFR; conditions: Table 2, kinase inhibition class; read-out: EGFR-1
T7 construct: Kinases are expressed as either kinase domains or full length constructs; made in house
T7 sequence (P00533 25-1210, species assumed): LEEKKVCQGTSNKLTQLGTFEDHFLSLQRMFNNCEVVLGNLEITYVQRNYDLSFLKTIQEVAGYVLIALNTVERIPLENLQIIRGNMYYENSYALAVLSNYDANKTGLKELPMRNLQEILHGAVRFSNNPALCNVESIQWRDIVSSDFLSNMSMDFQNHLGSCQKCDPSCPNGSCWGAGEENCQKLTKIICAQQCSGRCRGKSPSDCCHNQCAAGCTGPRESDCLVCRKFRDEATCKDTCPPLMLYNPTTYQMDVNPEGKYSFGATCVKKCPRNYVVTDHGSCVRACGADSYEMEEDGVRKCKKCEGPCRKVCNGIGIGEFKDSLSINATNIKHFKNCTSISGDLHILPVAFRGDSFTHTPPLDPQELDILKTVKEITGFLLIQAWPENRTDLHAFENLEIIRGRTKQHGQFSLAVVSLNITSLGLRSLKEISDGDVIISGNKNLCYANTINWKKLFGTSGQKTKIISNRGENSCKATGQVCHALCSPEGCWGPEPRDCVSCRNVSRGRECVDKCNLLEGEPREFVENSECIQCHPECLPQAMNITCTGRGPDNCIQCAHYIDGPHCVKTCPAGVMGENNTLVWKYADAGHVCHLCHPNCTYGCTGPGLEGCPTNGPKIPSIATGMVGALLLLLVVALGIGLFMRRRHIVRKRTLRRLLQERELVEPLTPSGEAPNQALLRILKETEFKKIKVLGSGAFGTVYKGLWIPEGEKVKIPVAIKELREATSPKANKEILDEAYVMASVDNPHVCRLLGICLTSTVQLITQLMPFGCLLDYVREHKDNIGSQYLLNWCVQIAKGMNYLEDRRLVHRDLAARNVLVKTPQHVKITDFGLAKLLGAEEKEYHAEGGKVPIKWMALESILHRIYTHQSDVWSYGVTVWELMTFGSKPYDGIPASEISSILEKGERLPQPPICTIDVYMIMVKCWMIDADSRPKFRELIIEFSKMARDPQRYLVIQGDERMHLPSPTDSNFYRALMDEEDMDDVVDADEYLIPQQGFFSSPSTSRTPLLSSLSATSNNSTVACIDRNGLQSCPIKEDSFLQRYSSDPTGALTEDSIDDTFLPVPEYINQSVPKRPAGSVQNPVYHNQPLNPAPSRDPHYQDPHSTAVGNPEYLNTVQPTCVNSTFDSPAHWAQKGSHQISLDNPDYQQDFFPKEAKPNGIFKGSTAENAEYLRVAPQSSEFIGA
In short: as §2

ErbB2 = molecular target: T8, ErbB2 (Homo sapiens, UniProt P04626); test: Kinase inhibition assay (33P transfer), ErbB2; conditions: read-out: ErbB2-2
T8 construct: Kinases are expressed as either kinase domains or full length constructs; made in house
In short: as §2

Kdr = molecular target: T9, Kdr (Homo sapiens, UniProt P35968); test: Kinase inhibition assay (33P transfer), Kdr; conditions: read-out: KDR-1
T9 construct: Kinases are expressed as either kinase domains or full length constructs; made in house
In short: as §1

Flt-1 = molecular target: T10, Flt-1 (Homo sapiens, UniProt P17948); test: Kinase inhibition assay (33P transfer), Flt-1
T10 construct: Kinases are expressed as either kinase domains or full length constructs; made in house
In short: as §2

c-Met = molecular target: T11, c-Met (Homo sapiens, UniProt P08581); test: Kinase inhibition assay (33P transfer), c-Met; conditions: Table 2, kinase inhibition class; read-out: Met-1
T11 construct: Kinases are expressed as either kinase domains or full length constructs; made in house
In short: as §2

AKT = molecular target: T12, AKT (Homo sapiens, UniProt Q9Y243); test: Kinase inhibition assay (33P transfer), AKT; conditions: Table 2, kinase inhibition class; read-out: AKT3-1
T12 construct: Kinases are expressed as either kinase domains or full length constructs; made in house
T12 sequence (Q9Y243 whole entry, the tested form may be a part): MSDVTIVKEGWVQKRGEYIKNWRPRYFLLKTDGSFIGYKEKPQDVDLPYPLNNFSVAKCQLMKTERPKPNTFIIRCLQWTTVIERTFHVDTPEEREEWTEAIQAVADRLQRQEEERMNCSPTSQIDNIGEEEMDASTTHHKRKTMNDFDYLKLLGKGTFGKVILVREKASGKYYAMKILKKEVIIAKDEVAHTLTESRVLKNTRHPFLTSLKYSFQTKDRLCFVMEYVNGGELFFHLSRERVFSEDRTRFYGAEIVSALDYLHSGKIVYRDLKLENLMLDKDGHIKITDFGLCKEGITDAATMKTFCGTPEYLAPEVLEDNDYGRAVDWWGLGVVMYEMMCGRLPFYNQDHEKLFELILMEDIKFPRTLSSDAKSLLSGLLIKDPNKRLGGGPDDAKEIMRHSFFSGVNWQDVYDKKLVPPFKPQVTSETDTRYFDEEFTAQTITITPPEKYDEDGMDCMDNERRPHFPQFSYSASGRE
In short: as §1

IGFR-1 = molecular target: T13, IGFR-1 (Homo sapiens, UniProt P08069); test: Kinase inhibition assay, IGFR-1 (Table 2); conditions: Table 2, kinase inhibition class
T13 construct: Kinases are expressed as either kinase domains or full length constructs; made in house
T13 sequence (P08069 31-1367): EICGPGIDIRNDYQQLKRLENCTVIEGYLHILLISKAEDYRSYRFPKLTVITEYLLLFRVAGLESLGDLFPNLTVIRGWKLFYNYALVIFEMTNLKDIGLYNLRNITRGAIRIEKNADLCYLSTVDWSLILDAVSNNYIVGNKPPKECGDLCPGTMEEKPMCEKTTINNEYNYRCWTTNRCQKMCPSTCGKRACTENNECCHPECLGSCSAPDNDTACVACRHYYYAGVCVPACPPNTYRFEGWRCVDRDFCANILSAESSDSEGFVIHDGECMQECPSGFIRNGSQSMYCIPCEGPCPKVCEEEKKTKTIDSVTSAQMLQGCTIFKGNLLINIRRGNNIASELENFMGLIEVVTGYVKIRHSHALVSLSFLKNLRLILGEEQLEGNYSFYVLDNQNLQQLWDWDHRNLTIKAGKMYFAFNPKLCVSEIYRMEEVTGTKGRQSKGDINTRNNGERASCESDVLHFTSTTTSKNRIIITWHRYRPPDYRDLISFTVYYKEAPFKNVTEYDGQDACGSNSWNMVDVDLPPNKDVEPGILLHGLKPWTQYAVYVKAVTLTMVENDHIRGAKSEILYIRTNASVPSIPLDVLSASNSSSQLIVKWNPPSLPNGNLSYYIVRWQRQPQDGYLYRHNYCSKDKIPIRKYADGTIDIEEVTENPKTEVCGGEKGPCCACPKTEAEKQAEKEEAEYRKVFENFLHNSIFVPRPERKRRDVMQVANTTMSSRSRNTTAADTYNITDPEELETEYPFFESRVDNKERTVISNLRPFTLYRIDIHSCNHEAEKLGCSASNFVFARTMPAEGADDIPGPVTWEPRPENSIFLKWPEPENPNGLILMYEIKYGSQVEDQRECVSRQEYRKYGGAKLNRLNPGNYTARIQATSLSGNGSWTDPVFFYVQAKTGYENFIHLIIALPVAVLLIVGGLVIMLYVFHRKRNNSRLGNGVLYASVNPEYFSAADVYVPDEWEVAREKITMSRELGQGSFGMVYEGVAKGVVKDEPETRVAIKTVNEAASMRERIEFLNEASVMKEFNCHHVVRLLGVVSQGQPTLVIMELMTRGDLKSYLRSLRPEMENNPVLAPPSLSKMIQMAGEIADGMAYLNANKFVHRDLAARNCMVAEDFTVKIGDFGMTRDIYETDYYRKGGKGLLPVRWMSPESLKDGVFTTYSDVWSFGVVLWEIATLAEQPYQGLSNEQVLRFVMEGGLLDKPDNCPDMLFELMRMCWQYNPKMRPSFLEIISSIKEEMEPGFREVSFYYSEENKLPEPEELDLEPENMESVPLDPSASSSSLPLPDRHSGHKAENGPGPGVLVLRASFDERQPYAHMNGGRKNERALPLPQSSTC

PDGFRB [1] = molecular target: T14, PDGFRB (Homo sapiens, UniProt P09619); test: Kinase inhibition assay (33P transfer), PDGFRB; conditions: read-out: PDGFRB-1
T14 construct: Kinases are expressed as either kinase domains or full length constructs; made in house

Hck-1 = molecular target: T15, Hck-1 (Homo sapiens, UniProt P08631); test: Kinase inhibition assay (33P transfer), Hck; conditions: Table 6, Hck-1 kinase inhibition class
T15 construct: Kinases are expressed as either kinase domains or full length constructs; made in house

ErbB4 = molecular target: T16, ErbB4 (Homo sapiens, UniProt Q15303); test: Kinase inhibition assay (33P transfer), ErbB4; conditions: read-out: ErbB4-1
T16 construct: Kinases are expressed as either kinase domains or full length constructs; made in house
T16 sequence (Q15303 26-1308, species assumed): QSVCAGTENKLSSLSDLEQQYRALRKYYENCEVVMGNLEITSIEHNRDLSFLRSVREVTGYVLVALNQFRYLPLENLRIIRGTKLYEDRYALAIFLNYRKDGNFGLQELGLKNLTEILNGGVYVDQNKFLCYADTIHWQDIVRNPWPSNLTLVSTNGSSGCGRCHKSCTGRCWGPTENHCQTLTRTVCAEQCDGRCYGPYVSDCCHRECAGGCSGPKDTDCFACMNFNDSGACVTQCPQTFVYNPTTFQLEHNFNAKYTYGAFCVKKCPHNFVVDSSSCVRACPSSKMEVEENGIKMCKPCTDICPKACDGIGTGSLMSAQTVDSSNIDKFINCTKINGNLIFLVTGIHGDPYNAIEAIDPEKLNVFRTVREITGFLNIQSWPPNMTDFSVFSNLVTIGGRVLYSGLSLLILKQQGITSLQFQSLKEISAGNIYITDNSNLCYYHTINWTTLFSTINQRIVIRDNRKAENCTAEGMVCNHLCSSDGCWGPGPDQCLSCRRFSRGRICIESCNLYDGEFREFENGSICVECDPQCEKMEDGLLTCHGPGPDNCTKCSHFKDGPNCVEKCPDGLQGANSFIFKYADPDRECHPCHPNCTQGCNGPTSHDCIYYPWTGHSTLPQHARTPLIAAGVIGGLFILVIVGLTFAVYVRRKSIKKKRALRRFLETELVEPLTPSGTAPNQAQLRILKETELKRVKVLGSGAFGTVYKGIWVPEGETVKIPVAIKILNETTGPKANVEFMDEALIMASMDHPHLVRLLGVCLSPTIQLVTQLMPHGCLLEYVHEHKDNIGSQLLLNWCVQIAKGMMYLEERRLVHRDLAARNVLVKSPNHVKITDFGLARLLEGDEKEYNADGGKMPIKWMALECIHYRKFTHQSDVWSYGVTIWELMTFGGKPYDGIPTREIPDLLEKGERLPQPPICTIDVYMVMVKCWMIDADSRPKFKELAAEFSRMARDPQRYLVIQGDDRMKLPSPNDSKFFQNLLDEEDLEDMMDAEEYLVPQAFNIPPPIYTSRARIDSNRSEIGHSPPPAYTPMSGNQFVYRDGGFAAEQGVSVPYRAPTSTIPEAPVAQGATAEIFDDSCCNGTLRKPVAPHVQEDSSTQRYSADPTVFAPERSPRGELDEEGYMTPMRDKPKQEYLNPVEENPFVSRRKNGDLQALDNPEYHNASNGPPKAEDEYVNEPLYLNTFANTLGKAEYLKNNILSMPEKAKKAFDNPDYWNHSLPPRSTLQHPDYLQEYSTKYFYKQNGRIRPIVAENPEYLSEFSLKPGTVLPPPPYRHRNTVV

Ret-1 = molecular target: T17, Ret-1 (Homo sapiens, UniProt P07949); test: Kinase inhibition assay (33P transfer), Ret; conditions: Table 6, Ret-1 kinase inhibition class
T17 construct: Kinases are expressed as either kinase domains or full length constructs; made in house

FGFR1 = molecular target: T18, FGFR1 (Homo sapiens, UniProt P11362); test: Kinase inhibition assay (33P transfer), FGFR1; conditions: read-out: FGFR1-1
T18 construct: Kinases are expressed as either kinase domains or full length constructs; made in house

PDGFRB [2] = molecular target: T14, PDGFRB; test: Kinase inhibition assay (33P transfer), PDGFRB; conditions: read-out: PDGFRB-1; remark: listed apart in the source

| pIC50 (Lck) | pIC50 (Lyn) | pIC50 (Src) | pIC50 (Fyn) | pIC50 (Zap-70) | pIC50 (Itk) | pIC50 (EGFR) | pIC50 (ErbB2) | pIC50 (Kdr) | pIC50 (Flt-1) | pIC50 (c-Met) | pIC50 (AKT) | pIC50 (IGFR-1) | pIC50 (PDGFRB [1]) | pIC50 (Hck-1) | pIC50 (ErbB4) | pIC50 (Ret-1) | pIC50 (FGFR1) | pIC50 (PDGFRB [2]) | Compound |
| --- | --- | --- | --- | --- | --- | --- | --- | --- | --- | --- | --- | --- | --- | --- | --- | --- | --- | --- | --- |
| > 6.16 | > 6.16 | > 6.16 | > 6.16 | < 5.11 | 5.22 to 5.39 | > 6.16 | > 6.16 | 5.39 to 6.16 | < 5.11 | < 5.11 | < 5.11 | 5.39 to 6.16 | > 6.16 | 5.22 to 5.39 | > 6.16 | > 6.16 | 5.39 to 6.16 | – | COc1cc(Nc2ncnc(Nc3ccc4c(cnn4Cc4ccccc4)c3)n2)cc(OC)c1OCCN1CCOCC1 [Compound 559] |
| 5.34 to 6.12 | 5.18 to 5.34 | < 5.07 | < 5.07 | < 5.07 | < 5.07 | – | 5.18 to 5.34 and > 6.12 | 5.34 to 6.12 and > 6.12 | 5.34 to 6.12 | < 5.07 | < 5.07 | < 5.07 | – | – | > 6.12 | > 6.12 | 5.34 to 6.12 | < 5.07 | COc1cc(Nc2ncnc(-n3c(NC4c5ccccc5CC4O)nc4ccccc43)n2)cc(OC)c1OC (stereo not shown) [Compound 579] |
| 5.04 to 5.21 | < 4.93 | < 4.93 | < 4.93 | < 4.93 | < 4.93 | > 5.98 | 5.21 to 5.98 | 5.04 to 5.21 | < 4.93 | 4.93 to 5.04 | < 4.93 | < 4.93 | – | – | < 4.93 | 5.04 to 5.21 | 5.21 to 5.98 | < 4.93 | Cc1cccc(Nc2ncnc(N3CCCc4ccc(C(F)(F)F)cc43)n2)c1 [Compound 582] |
| 5.20 to 5.36 | < 5.09 | < 5.09 | < 5.09 | < 5.09 | < 5.09 | < 5.09 | 5.20 to 5.36 | > 6.14 | 5.36 to 6.14 | 5.09 to 5.20 | < 5.09 | < 5.09 | – | – | < 5.09 | > 6.14 | > 6.14 | 5.36 to 6.14 | CCOC(=O)C(Nc1nc2ccccc2n1-c1ncnc(Nc2cc(OC)c(OC)c(OC)c2)n1)c1ccccc1 (stereo not shown) [Compound 585] |
| 5.34 to 6.12 | 5.34 to 6.12 | < 5.07 | < 5.07 | < 5.07 | < 5.07 | 5.17 to 5.34 and 5.07 to 5.17 | 5.34 to 6.12 and 5.17 to 5.34 | > 6.12 and 5.34 to 6.12 | 5.34 to 6.12 | 5.07 to 5.17 and < 5.07 | < 5.07 | 5.07 to 5.17 and < 5.07 | – | – | 5.34 to 6.12 | > 6.12 | > 6.12 | 5.34 to 6.12 and < 5.07 | COc1cc(Nc2ncnc(-n3c(NC4CCCc5ccccc54)nc4ccccc43)n2)cc(OC)c1OC (stereo not shown) [Compound 587] |
